Results on 25 compounds are retold here after patent US11052092B2, “N-{[2-(piperidin-1-yl)phenyl](phenyl)methyl}-2-(3-oxo-3,4-dihydro-2H-1,4-benzoxazin-7-yl)acetamide derivatives and related compounds as ROR-gamma modulators for treating autoimmune diseases” (Genfit, priority 2017, dated 2021).

As a reminder, the IC50 is the concentration that inhibits the measured activity by half.

The structures appear in SMILES notation.

For the experiment, the target named is T1, human RORγt (Homo sapiens, UniProt P51449).
T1 construct: the full-length cDNA of human RORγt; expressed in transfected cells; host or cells: COS-7 (monkey kidney)
T1 sequence (P51449 1-497 isoform P51449-2): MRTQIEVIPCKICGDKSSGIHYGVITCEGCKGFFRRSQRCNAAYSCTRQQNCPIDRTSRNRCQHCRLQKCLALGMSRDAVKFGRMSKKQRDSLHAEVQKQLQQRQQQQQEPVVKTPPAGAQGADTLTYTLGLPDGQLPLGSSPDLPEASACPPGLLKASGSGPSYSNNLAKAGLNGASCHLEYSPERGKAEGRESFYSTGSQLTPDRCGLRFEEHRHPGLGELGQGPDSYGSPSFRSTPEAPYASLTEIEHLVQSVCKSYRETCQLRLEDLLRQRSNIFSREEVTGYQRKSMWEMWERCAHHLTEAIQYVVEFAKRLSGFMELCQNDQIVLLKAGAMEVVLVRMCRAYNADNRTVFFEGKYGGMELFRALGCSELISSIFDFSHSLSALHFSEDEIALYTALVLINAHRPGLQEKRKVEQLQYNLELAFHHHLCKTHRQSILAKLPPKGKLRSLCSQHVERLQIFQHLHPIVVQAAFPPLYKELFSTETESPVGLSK
The experiment can be described thus: RORE Luciferase/RORγt transactivation assay. In kind it is cell-based. The following applies: COS-7 cells transfected with human IL-17 promoter luciferase reporter and RORγt plasmid; 20 h with compound; read-out: IC50, RORγt activity inhibition. As for the experimental part:
It is well known that RORγ binds to a conserved non-coding sequence (CNS) enhancer element in the IL-17 promoter.
Culture medium was changed every 2 days.
The 4.3 Kb human IL-17 promoter containing the RORγ-specific CNS enhancer element was PCR amplified from human genomic DNA and cloned into a pGL3-TKLuc2Cp reporter plasmid.
The luciferase reporter plasmid and the RORγt overexpression plasmid were transfected into COS-7 cell line using 4 μLJetPEI™/μg of DNA. Briefly, 150 ng of DNA (ration ½ between RORE-Tk Luc2Cp and cDNA RORγt or the empty vector for the negative control) was served to transfect adherent COS-7 cells in a […] culture flask, in complete medium (see cos-7 cell line culture).
Cells were then detached (using trypsin) and washed by centrifugation at 300 g for 10 minutes. Cell pellet was resuspended in serum free/phenol red free DMEM and seeded in 384 well plates at a density of 10000 cells/well and then incubated for 4 h at 37° C.
Compounds were dissolved in 100% DMSO to obtain 10 mM stock solutions. For each compound, test concentrations were diluted in serum free/phenol red free DMEM using the Genesis Freedom 200™ (TECAN) and added to the cells to obtain a 0.3% DMSO final concentration (in a final volume of 40 μL per well).
The luciferase activity was then measured with 40 μL/well steady-Glo Luciferase assay system (Promega, Madison, Wis.) and after incubation at room temperature for 30 minutes. The luminescence was estimated using the Ultra384 reader (TECAN). Data were collected and analyzed using GraphPad Prism software (GraphPad Software V5.02, San Diego Calif. USA). IC50 in μM and Emax in % were reported for each compound.
For orientation: Reporter assays use an easily measured gene product as a stand-in for the process of interest.
For the compound `CC(C)CC(NC(=O)Cc1ccc2c(c1)OCC(=O)N2)c1ccccc1N1CCCCC1` (stereo not shown) [Cpd. 6, N-{3-methyl-1-[2-(piperidin-1-yl)phenyl]butyl}-2-(3-oxo-3,4-dihydro-2H-1,4-benzoxazin-7-yl)acetamide], the IC50 was 1000 to 10000 nM.

For the compound `O=C1COc2ccc(CC(=O)NC(c3ccccc3)c3ccccc3N3CCCCC3)cc2N1` (stereo not shown) [Cpd. 13, 2-(3-oxo-3,4-dihydro-2H-1,4-benzoxazin-6-yl)-N-{phenyl[2-(piperidin-1-yl)phenyl]methyl}acetamide], the IC50 fell in the range of 1000 to 10000 nM.

On to `O=C1Cc2cc(CC(=O)NC(c3ccccc3)c3ccccc3N3CCOCC3)ccc2N1` (stereo not shown) [Cpd. 17, N-{[2-(morpholin-4-yl)phenyl](phenyl)methyl}-2-(2-oxo-2,3-dihydro-1H-indol-5-yl)acetamide], for which the IC50 was in the range of 1000 to 10000 nM.

`Cc1ccc(C(NC(=O)Cc2ccc3c(c2)CC(=O)N3)c2ccc(C)o2)c(C)c1` (stereo not shown) [Cpd. 29, N-[(2,4-dimethylphenyl)(5-methylfuran-2-yl)methyl]-2-(2-oxo-2,3-dihydro-1H-indol-5-yl)acetamide]: the IC50 lay within 1000 to 10000 nM.

As to `Cc1ccc(C(NC(=O)Cc2ccc3c(c2)C(O)C(=O)N3)c2ccc(C)o2)c(N2CCCCC2)c1` (stereo not shown) [Cpd. 46, 2-(3-hydroxy-2-oxo-2,3-dihydro-1H-indol-5-yl)-N-{[4-methyl-2-(piperidin-1-yl)phenyl](5-methylfuran-2-yl)methyl}acetamide], the IC50 is 100 to 1000 nM.

Take `Cc1ccc(C(NC(=O)Cc2ccc3c(c2)CCC3=O)c2ccc(C)o2)c(N2CCCCC2)c1` (stereo not shown) [Cpd. 51, N-{[4-methyl-2-(piperidin-1-yl)phenyl](5-methylfuran-2-yl)methyl}-2-(1-oxo-2,3-dihydro-1H-inden-5-yl)acetamide]: the IC50 is 100 to 1000 nM.

With `CC(C)=C1C(=O)Nc2ccc(CC(=O)NC(c3ccc(C)o3)c3ccc(C)cc3N3CCCCC3)cc21` (stereo not shown) [Cpd. 55, N-{[4-methyl-2-(piperidin-1-yl)phenyl](5-methylfuran-2-yl)methyl}-2-[2-oxo-3-(propan-2-ylidene)-2,3-dihydro-1H-indol-5-yl]acetamide], the IC50 fell in the range of 100 to 1000 nM.

On to `Cc1ccc(C(NC(=O)C2(c3ccc4c(c3)CN(S(C)(=O)=O)C4)CC2)c2ccc(Cl)o2)c(C)c1` (stereo not shown) [Cpd. 56, N-[(5-chlorofuran-2-yl)(2,4-dimethylphenyl)methyl]-1-(2-methanesulfonyl-2,3-dihydro-1H-isoindol-5-yl)cyclopropane-1-carboxamide], for which the IC50 was in the range of 10 to 100 nM.

For the compound `Cc1ccc(C(NC(=O)C2(c3ccc4c(c3)CN(S(C)(=O)=O)C4)CC2)c2ccc(C)o2)c(C)c1` (stereo not shown) [Cpd. 65, N-[(2,4-dimethylphenyl)(5-methylfuran-2-yl)methyl]-1-(2-methanesulfonyl-2,3-dihydro-1H-isoindol-5-yl)cyclopropane-1-carboxamide], the IC50 is 10 to 100 nM.

As for `Cc1ccc(C(NC(=O)C2(c3ccc4[nH]cc(CCO)c4c3)CC2)c2ccc(C)o2)c(N2CCCCC2)c1` (stereo not shown) [Cpd. 66, 1-[3-(2-hydroxyethyl)-1H-indol-5-yl]-N-{[4-methyl-2-(piperidin-1-yl)phenyl](5-methylfuran-2-yl)methyl}cyclopropane-1-carboxamide], the IC50 was in the range of 10 to 100 nM.

Regarding `Cc1ccc(C(NC(=O)Cc2ccc3c(c2)C(=O)CC3)c2ccc(C)o2)c(N2CCCCC2)c1` (stereo not shown) [Cpd. 67, N-{[4-methyl-2-(piperidin-1-yl)phenyl](5-methylfuran-2-yl)methyl}-2-(3-oxo-2,3-dihydro-1H-inden-5-yl)acetamide], the IC50 is 100 to 1000 nM.

In the case of `Cc1ccc(C(NC(=O)C2(c3ccc4c(ccn4CCO)c3)CC2)c2ccc(C)o2)c(C)c1` (stereo not shown) [Cpd. 69, N-[(2,4-dimethylphenyl)(5-methylfuran-2-yl)methyl]-1-[1-(2-hydroxyethyl)-1H-indol-5-yl]cyclopropane-1-carboxamide], the IC50 was in the range of 10 to 100 nM.

For the compound `Cc1ccc(C(NC(=O)C2(c3ccc4c(c3)CS(=O)(=O)N4C)CC2)c2ccc(C)o2)c(C)c1` (stereo not shown) [Cpd. 70, N-[(2,4-dimethylphenyl)(5-methylfuran-2-yl)methyl]-1-(1-methyl-2,2-dioxo-1,3-dihydro-2,1-benzothiazol-5-yl)cyclopropane-1-carboxamide], the IC50 lay within 10 to 100 nM.

With `Cc1ccc(C(NC(=O)Cc2ccc3c(c2)C(O)CC3)c2ccc(C)o2)c(N2CCCCC2)c1` (stereo not shown) [Cpd. 85, 2-(3-hydroxy-2,3-dihydro-1H-inden-5-yl)-N-{[4-methyl-2-(piperidin-1-yl)phenyl](5-methylfuran-2-yl)methyl}acetamide], the half-maximal inhibitory concentration (IC50) was 10 to 100 nM.

For `Cc1ccc(C(NC(=O)C2(c3ccc4c(c3)CCN4C(=O)C3CC3)CC2)c2ccc(C)o2)c(C)c1` (stereo not shown) [Cpd. 95, 1-(1-cyclopropanecarbonyl-2,3-dihydro-1H-indol-5-yl)-N-[(2,4-dimethylphenyl)(5-methylfuran-2-yl)methyl]cyclopropane-1-carboxamide], the IC50 was 10 to 100 nM.

`Cc1ccc(C(NC(=O)Cc2ccc3c(ccn3CCC(=O)OC(C)(C)C)c2)c2ccc(C)o2)c(N2CCCCC2)c1` (stereo not shown) [Cpd. 96, tert-butyl 3-{5-[({[4-methyl-2-(piperidin-1-yl)phenyl](5-methylfuran-2-yl)methyl}carbamoyl)methyl]-1H-indol-1-yl}propanoate]: the IC50 was 100 to 1000 nM.

As to `COc1ccc(C(NC(=O)Cc2ccc3c(ccn3CCC(=O)OC(C)(C)C)c2)c2ccc(C)o2)c(N2CCCCCC2)c1` (stereo not shown) [Cpd. 110, tert-butyl 3-{5-[({[2-(azepan-1-yl)-4-methoxyphenyl](5-methylfuran-2-yl)methyl}carbamoyl)methyl]-1H-indol-1-yl}propanoate], the IC50 lay within 100 to 1000 nM.

`Cc1ccc(C(NC(=O)Cc2ccc3c(ccn3CC3CCOCC3)c2)c2ccc(C)o2)c(N2CCCCC2)c1` (stereo not shown) [Cpd. 113, N-{[4-methyl-2-(piperidin-1-yl)phenyl](5-methylfuran-2-yl)methyl}-2-[1-(oxan-4-ylmethyl)-1H-indol-5-yl]acetamide]: the IC50 is 10 to 100 nM.

Regarding `Cc1ccc(C(NC(=O)Cc2ccc3c(c2)CCN3C(=O)C2CC2)c2ccc(C)o2)c(N2CCCCC2)c1` (stereo not shown) [Cpd. 123, 2-(1-cyclopropanecarbonyl-2,3-dihydro-1H-indol-5-yl)-N-{[4-methyl-2-(piperidin-1-yl)phenyl](5-methylfuran-2-yl)methyl}acetamide], the IC50 was less than 10 nM.

As to `Cc1ccc(C(NC(=O)C2(c3ccc4c(c3)OCS(=O)(=O)N4)CC2)c2ccc(C)o2)c(Br)c1` (stereo not shown) [Cpd. 131, N-[(2-bromo-4-methylphenyl)(5-methylfuran-2-yl)methyl]-1-(2,2-dioxo-1,3-dihydro-4,2,1-benzoxathiazin-6-yl)cyclopropane-1-carboxamide], the IC50 was 10 to 100 nM.

Turning to `CCN1c2ccc(C3(C(=O)NC(c4ccc(C)o4)c4ccc(C)cc4C)CC3)cc2CS1(=O)=O` (stereo not shown) [Cpd. 132, N-[(2,4-dimethylphenyl)(5-methylfuran-2-yl)methyl]-1-(1-ethyl-2,2-dioxo-1,3-dihydro-2,1-benzothiazol-5-yl)cyclopropane-1-carboxamide], the IC50 was in the range of 10 to 100 nM.

In the case of `Cc1ccc(C(NC(=O)C2(c3ccc4c(c3)CS(=O)(=O)N4C)CC2)c2ccc(C)o2)c(N(C)C)c1` (stereo not shown) [Cpd. 133, N-{[2-(dimethylamino)-4-methylphenyl](5-methylfuran-2-yl)methyl}-1-(1-methyl-2,2-dioxo-1,3-dihydro-2,1-benzothiazol-5-yl)cyclopropane-1-carboxamide], the IC50 lay within 10 to 100 nM.

Take `Cc1ccc(C(NC(=O)C2(c3ccc4c(c3)OCC(=O)N4)CC2)c2ccc(Cl)o2)c(C)c1` (stereo not shown) [Cpd. 134, N-[(5-chlorofuran-2-yl)(2,4-dimethylphenyl)methyl]-1-(3-oxo-3,4-dihydro-2H-1,4-benzoxazin-7-yl)cyclopropane-1-carboxamide]: the IC50 was less than 10 nM.

Regarding `Cc1ccc(C(NC(=O)C2(c3ccc4c(c3)OCC(=O)N4)CC2)c2ccc(C)o2)c(Br)c1` (stereo not shown) [Cpd. 135, N-[(2-bromo-4-methylphenyl)(5-methylfuran-2-yl)methyl]-1-(3-oxo-3,4-dihydro-2H-1,4-benzoxazin-7-yl)cyclopropane-1-carboxamide], the IC50 is less than 10 nM.

`Cc1ccc(C(NC(=O)C2(c3ccc4c(c3)OCC(=O)N4)CC2)c2cccc(C)n2)c(C)c1` (stereo not shown) [Cpd. 136, N-[(2,4-dimethylphenyl)(6-methylpyridin-2-yl)methyl]-1-(3-oxo-3,4-dihydro-2H-1,4-benzoxazin-7-yl)cyclopropane-1-carboxamide]: the IC50 lay within 10 to 100 nM.
